The numbers were not newly measured in patent USRE41489E1 (priority 1997, dated 2010), which cites them from elsewhere.

Like-named read-outs stand apart in the source and are kept apart here. Some results are limits rather than exact numbers.

The term Cmax denotes the peak of the concentration-time curve. A word on the Tmax: it is the time at which the peak concentration occurs.

The conditions of data set [1]: estimated.
For data set [2] the following is noted: conscious postoperative patients.
For data set [3] the following is noted: rats.
Assay in data set [4]: not given
The source holds these as a separate data set.

The conditions of data set [5]: parenteral, on a weight basis.
The next data set has as its target δ receptors (Homo sapiens, UniProt P41143).
Setting [6] is: intravenous single dose of about 0.3 mg.

Chain of δ receptors (P41143 whole entry): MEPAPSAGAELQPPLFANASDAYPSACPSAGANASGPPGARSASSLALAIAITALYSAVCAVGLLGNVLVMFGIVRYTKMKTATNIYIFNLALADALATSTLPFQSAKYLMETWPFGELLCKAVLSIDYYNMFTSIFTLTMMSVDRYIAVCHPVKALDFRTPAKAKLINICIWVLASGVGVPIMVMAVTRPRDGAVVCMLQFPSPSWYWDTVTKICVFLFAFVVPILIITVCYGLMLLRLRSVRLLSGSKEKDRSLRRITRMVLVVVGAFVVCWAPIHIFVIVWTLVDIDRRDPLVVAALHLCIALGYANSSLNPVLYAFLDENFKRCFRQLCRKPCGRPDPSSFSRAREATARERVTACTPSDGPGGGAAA

With `CO[C@]12CC[C@@]3(C[C@@H]1[C@](C)(O)C(C)(C)C)[C@H]1Cc4ccc(O)c5c4[C@@]3(CCN1CC1CC1)[C@H]2O5` [buprenorphine, 21-cyclopropyl-7-[(S)-1-hydroxy-1,2,2-trimethylpropyl]-6,14-endo-ethano-6,7,8,14-tetrahydrooripavine], the oral bioavailability in data set [1] is reported as 15%. Moreover, where the note is “0.4 mg sublingual single dose”, the Cmax was 0.50 ± 0.06 ng/mL, the Tmax was 210 ± 40 min and the systemic availability was 57.7%. Moreover, where the note is “0.8 mg sublingual single dose”, the Cmax is 1.04 ± 0.27 ng/mL, the Tmax is 192 ± 49 min and the systemic availability was 54.1%. The total plasma clearance result in data set [2] is “approximately 1.28 l/minute”. Further, the “bound to plasma proteins” value in the data set on plasma proteins is “approximately 96%”. Moreover, the “time to highest concentrations in the liver” value in data set [3] (intramuscular administration) is at most 40 min. In addition, the “time to highest concentrations in the liver” value in data set [3] (oral administration) was at most 10 min. Also, in data set [4] (intramuscular second 0.3-mg dose 3 hours after the initial intravenous dose), the “mean peak plasma buprenorphine concentration” value is “about 3.6 ng/ml”. Further, in data set [4] (intramuscular second 0.3-mg dose, after about 3 hours), the plasma concentration result is reported as “about 0.4 ng/ml”. Besides, in data set [4] (intravenous about 0.3 mg, after about 5 minutes), the plasma concentration entry was “about 9 ng/ml”. The plasma concentration result in data set [4] (intravenous about 0.3 mg, after about 3 hours) is reported as “about 0.4 ng/ml”. In data set [4] (setting [6]), the “mean peak plasma drug concentration” value was “about 18 ng/ml” and the “time of mean peak plasma concentration” value is at most 2 min. In data set [5], the “analgesic potency relative to meperidine” value is given as “about 600 times” and the “analgesic potency relative to pentazocine” value is on record as “about 200 times”. Further, the “binding affinity to δ receptors” value at δ receptors is “lower affinity”.
